Patent publication US20150110716A1, “METHODS OF USING SPECT/CT ANALYSIS FOR STAGING CANCER” (Molecular Insight Pharmaceuticals, Inc., priority 2013, published 2015)
Several values for one entry are separate records, joined by “and”; a condition that tells them apart may be missing. Equal values may be shown once.

Assays:
Format in all cases: in vivo, human
[1] = test system: metastatic prostate cancer in pelvic lymph nodes; experiment: Phase 2 study: SPECT/CT detection of pelvic lymph node involvement vs histopathology
Procedure: (§1) A phase-2 study to image men with high-risk prostate cancer scheduled for radical prostatectomy (RP) and Extended Pelvic Lymph Node Dissection (EPLND) was performed using a compound according to Formula (1), as an illustrative radioimaging agent. The primary objective of the study was to assess the safety and the ability of the Formula (1) compound to detect prostate cancer within the prostate gland. Secondary objectives include (i) assess the ability of the Formula (1) compound to detect the extent and location of prostate cancer within the prostate gland, (2) assess the ability of the Formula (1) compound to detect metastatic PCa within pelvic lymph nodes and to further detect the specific location of metastatic PCa within anatomic pelvic lymph node regions, (3) compare the performance of the Formula (1) compound as a prostate cancer imaging agent to MRI and compare the ability of the Formula (1) compound to detect the specific location of metastatic PCa within pelvic lymph nodes to the ability of MRI for detecting the specific location of metastatic PCa within pelvic lymph nodes.
A Phase-2 multi-center, multi-reader, open-label trial, to assess the performance characteristics of the Formula (1) compound as an imaging agent was measured by true-positive fraction (TPF equivalent to sensitivity) and false-positive fraction (FPF, equivalent to 1-specificity). The “truth standard” for determining true-positive cases and false-positive cases were histopathology results obtained subsequent to RP and EPLND. […]
Newly-diagnosed prostate cancer patients at high-risk for metastatic disease who were scheduled for RP with EPLND were enrolled in the study. […] Images of the patients were evaluated for visible uptake of the Formula (1) compound within the prostate gland and by regional assessment of nodal disease. […]
Patients (pts) with biopsy confirmed adenocarcinoma of the prostate scheduled for RP with extended pelvic lymph node dissection (EPLND) at high risk for disease outside of the prostate gland were eligible. […] SPECT/CT images were evaluated centrally by 3 readers blinded to clinical information and compared to on-site pathology assessments using a common scoring template, for instance, a Lesion Visualization Grading Score. […]
Three nuclear medicine experts and an MRI expert, blinded to clinical information, assessed ^99mTc-trofolastat uptake and morphologic features respectively in the prostate gland and lymph nodes. The findings were recorded using common anatomic template consisting of six prostate segments and pelvic lymph node regions. […]

[2] = Phase 1 cross-over study: pharmacokinetics, biodistribution, dosimetry, excretion
From the text: Pharmacokinetics, Biodistribution, Dosimetry, Metabolism & Excretion of compound represented by Formula (1) and Formula (2). Methods: Fourteen subjects (7 metastatic prostate cancer patients and 7 healthy, normal males) were enrolled in a phase 1, single-blind, randomized, cross-over study in which subjects were randomly administered a single dose (740 MBq; 20 mCi) of a compound represented by Formula (1) and a similar chemical analog, a compound represented by Formula (2), 14 days apart. […] (FIGS. 1 and 2A)

[3] = test system: prostate cancer lesions (PSMA expressing); experiment: Phase 1 study before radical prostatectomy: SPECT uptake in prostate lesions vs Gleason score; parameters: Clinical Reading: scale not given here; conditions: for tumor/background ratio: 20 mCi, SPECT 2-4 hours p.i.
Procedure: Patients (n=8) diagnosed with localized PCa (Gleason ≧7 with ≧3 biopsy cores positive, and at least one core ≧30% involved with PCa) and who were scheduled for radical prostatectomy (RP) participated in this Phase 1 study. Within two weeks of surgery, each subject received a single dose of a compound represented by Formula (1), (20 mCi), and was then subjected to a planar whole body and Single Photon Emission Computed Tomography (SPECT) images between 2-4 hours post injection (p.i.). The uptake of the Tc-99m in prostate lesions was quantified, and the imaging results were compared to CT/MRI, histopathology and PSMA staining.

[4] = test system: primary prostate cancer within the prostate gland; experiment: Phase 2 study: SPECT/CT detection of primary prostate cancer vs histopathology
Procedure: as §1
A Phase-2 multi-center, multi-reader, open-label trial, to assess the performance characteristics of the Formula (1) compound as an imaging agent was measured by true-positive fraction (TPF equivalent to sensitivity) and false-positive fraction (FPF, equivalent to 1-specificity). The “truth standard” for determining true-positive cases and false-positive cases were histopathology results obtained subsequent to RP and EPLND. The performance of the Formula (1) compound as an imaging agent was compared to MRI by calculating (1) the difference in correctly identified positive cases by each imaging method that also are positive by histopathology subsequent to RP and EPLND (TPF); and (2), the difference in incorrectly identified […] cases by each imaging method, that also are […] by histopathology subsequent to RP and EPLND (FPF).
Newly-diagnosed prostate cancer patients at high-risk for metastatic disease who were scheduled for RP with EPLND were enrolled in the study. […] Subjects will receive a single intravenous dose of the Formula (1) compound (study drug) followed by both whole-body planar and SPECT/CT imaging 3-6 hours after injection. As standard of care, subjects underwent RP with EPLND surgery and histological assessment of specimens no more than 3 weeks after study drug dosing. Images of the patients were evaluated for visible uptake of the Formula (1) compound within the prostate gland and by regional assessment of nodal disease. These findings were compared against histopathology results used as the truth standard.
Efficacy analyses were conducted utilizing histopathology results subsequent to radical prostatectomy and extended pelvic lymph node dissection as the truth-standard for determination of positive and negative cases. Primary efficacy analyses estimated the ability of the compound represented by Formula (1) to detect cancer in prostate glands that were confirmed as harboring tumor based on a biopsy. The primary efficacy analysis evaluated sensitivity and specificity of the compound represented by Formula (1) using 80% power to establish the lower bound of one-sided 95% confidence intervals. All subjects who receive the Formula (1) and complete surgery will be included in the primary efficacy analysis.
Patients (pts) with biopsy confirmed adenocarcinoma of the prostate scheduled for RP with extended pelvic lymph node dissection (EPLND) at high risk for disease outside of the prostate gland were eligible. High risk patients were stage of T3c or […] or a nomogram score ≧130 (Godot′ et al., Eur. Urol., (2011), p 195-201). Within 30 days of screening, the patients required a bone scan and pelvic MRI. After enrollment, the patients received a compound represented by Formula (1) at a dose of 20 mCi±3 mCi followed by whole-body planar and SPECT/CT imaging 3 to 6 hrs later. Patients then underwent RP with EPLND within 21 days. […]

[5] = Formula (1) compared with Formula (2)
[6] = individual subjects (n=8), Gleason score 7 or 9, listed as 99mTc-MIP-1404
[7] = Patient/Gland Level (n = 54), interim, fraction
[8] = Patient/Gland, matched vs MRI (n = 47), fraction
[9] = interim, n=54, primary prostate cancer

- period over which compound is cleared from blood ([2]; FIG. 1A): about 1500 minutes
- uptake in liver and kidney tissue [2, 5]: greater
- percent intensity of signal detected as a function of drug administered ([2]; Formula (1) compared with Formula (2), every time point): greater
- accumulation in the urinary bladder ([2]; in vivo): minimal accumulation
- estimated radiation dose (dosimetry) ([2]; single dose 740 MBq (20 mCi)): within the clinically acceptable range
Substance: (OC-6-33)-tricarbonyl[N^2-{[(1S)-1,3-dicarboxypropyl]amino]carbamoyl}-L-γ-glutamyl-N^6,N^6-bis[(1-{2-[bis(carboxymethyl)amino]-2-oxoethyl]-1H-imidazol-2-yl-κN^3]methyl]-L-lysine-κN^6](^99mTc)(+)chloride [Formula (1)]
- scan-detected lymph node involvement confirmed by histopathology ([1]; 8/16): 50%
- patients with lymph node involvement detected by scan ([1]; 16/53 patients): 30%
- patients in whom lymph node involvement was accurately characterized ([1]; 41/53 patients): 77%
- size of positive lymph nodes detected ([1]; patients positive by scan with matching positive histopathology): 2 mm
- gamma radiation signal in scintigraphic images ([2]; 24 hour time point, liver, kidney, urinary bladder, prostate, lacrimal and salivary glands): near complete loss of gamma radiation signal
- tissues of accumulation ([2]; in vivo pharmacokinetic and biodistribution studies): liver, kidneys and salivary glands as well as the urinary bladder and prostate tissue
- correlation between 99mTc uptake levels and the Gleason score [3, 5]: stronger
- tumor/background ratio ([3]; Gleason score of 7): 10.8±2.2
- tumor/background ratio ([3]; Gleason score of 9): 30±10
- identification of PCa foci confirmed by histopathology and PSMA staining ([3]; all subjects with Gleason score ≧7): clearly identified the PCa foci
- Clinical Reading [3, 6]: 0 and 1 (3×) and 3 (2×) and 4 (2×)
- T/B Ratio [3, 6]: 13 and 14 and 10.5 and 10 and 6.5 and 15.5 and 33 and 45
- Accuracy [4, 7]: 0.94
- NPV [4, 7]: 0.40
- PPV [4, 7]: 1.00
- Sensitivity [4, 7]: 0.84
- Specificity [4, 7]: 1.00
- Accuracy [4, 8]: 0.94
- NPV [4, 8]: 0.40
- PPV [4, 8]: 1.00
- Sensitivity [4, 8]: 0.93
- Specificity [4, 8]: 1.00
- patients in whom presence or absence of primary prostate cancer was correctly identified ([4]; interim, n=54, majority of SPECT/CT readers, histopathology as truth standard): 94%
- Sensitivity [4, 9]: 94%
- Specificity [4, 9]: 100%
- matched patients in whom primary disease was correctly characterized ([4]; n=47 matched with MRI): 94%
- more patients correctly characterized than by the MRI reader ([4]; n=47 matched with MRI): 13%
